The values below come from patent publication US8420630B2 (Boehringer Ingelheim Pharma GmbH & Co. KG, priority 2001, dated 2013).

Where only a bound is given, the exact number is not on record here.

T1 sequence (P06493 whole entry): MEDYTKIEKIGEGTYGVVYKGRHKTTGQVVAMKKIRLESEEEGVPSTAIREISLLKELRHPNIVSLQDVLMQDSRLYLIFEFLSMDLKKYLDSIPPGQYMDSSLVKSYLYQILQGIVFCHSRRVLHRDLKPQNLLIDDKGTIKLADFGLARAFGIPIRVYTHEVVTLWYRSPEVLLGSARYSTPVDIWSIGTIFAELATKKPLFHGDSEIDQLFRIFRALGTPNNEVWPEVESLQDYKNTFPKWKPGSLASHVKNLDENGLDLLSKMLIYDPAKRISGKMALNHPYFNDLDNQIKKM
T1 sequence (P14635 whole entry partner): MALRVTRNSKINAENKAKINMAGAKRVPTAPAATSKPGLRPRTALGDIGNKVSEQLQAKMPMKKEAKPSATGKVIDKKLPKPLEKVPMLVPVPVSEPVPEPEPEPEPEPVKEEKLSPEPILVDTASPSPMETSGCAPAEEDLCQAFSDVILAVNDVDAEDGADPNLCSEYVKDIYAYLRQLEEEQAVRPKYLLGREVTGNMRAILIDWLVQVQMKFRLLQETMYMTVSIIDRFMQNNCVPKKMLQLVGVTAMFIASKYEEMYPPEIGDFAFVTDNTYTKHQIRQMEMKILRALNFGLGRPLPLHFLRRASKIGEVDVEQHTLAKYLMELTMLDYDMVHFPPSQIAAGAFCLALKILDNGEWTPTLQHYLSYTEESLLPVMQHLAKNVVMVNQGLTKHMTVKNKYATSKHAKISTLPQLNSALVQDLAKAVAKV

This assay has as its target T1, CDK1/cyclinB1 (Homo sapiens, UniProt P06493).
T1 construct: made in house; host or cells: High Five insect cells (Trichoplusia ni), baculovirus coinfection
Briefly: Cyclin B1-CDK1 kinase inhibition test. It is filed as biochemical. Conditions: CDK1 tests (Example 13); recombinant cyclin B1/CDK1, substrate histone H1; read-out: CDK1/cyclinB1 IC50 value. The procedure: CDK4) were cloned by standard methods using RT-PCR, and cloned into a transfer vector (cyclin in pAcG2T made by Pharmingen, CDKs in p2Bac made by Invitrogen) for the baculovirus system. […] After thawing the cells were resuspended in lysing buffer (50 mM HEPES pH 7.5, 10 mM MgCl2, 1 mM DTT, 5 μg/ml leupeptin, 5 μg/ml aprotinin, 100 μM NaF, 100 μM PMSF, 10 mM β-glycerolphosphate, 100 μM Na3VO4, 30 mM nitrophenylphosphate, 17.5 ml of lysing buffer per 10^8 cells) and incubated on ice for 30 min. […] Cyclin D1-CDK4 was purified by means of a GST-tag on cyclin D1 and then using glutathione beads (total protein about 0.2 mg/ml). All the kinase tests were carried out in 96-well microtitre plates (Greiner PS) in a final volume of 60 μl. […] As a negative control the kinase reaction was carried out in the absence of the substrate histone H1. As a positive control the kinase reaction was carried out in the absence of a test substance. As an internal control 30 μM and 300 μM (final concentration) of the kinase inhibitor olomoucin (Alexis) were used. […] The kinase reaction is started by the addition of 10 μl of ATP mix (0.045 mM ATP, 0.5 μCi ^33P-ATP in kinase buffer) and incubated for 30 min at 30° C. and 600 rpm in a shaking incubator. After incubation the plates were placed on ice and the proteins were precipitated by the addition of 125 μl of ice-cold 5% trichloroacetic acid. After 15 min on ice the precipitates were transferred onto Packard Unifilter 96 GF/B plates with the Packard Harvester System, and collected by vacuum filtration. The precipitates were washed 4 times with dist. H2O at ambient temperature. The filter plates were then dried at 60° C. and 50 μl of scintillation liquid were added to each well (Ultima Gold, Packard). The plate was sealed up with Sealing Tape and after 1 h measured in a scintillation measuring apparatus (Micro Beta made by Wallac).
Take `CN(C)[C@H]1CC[C@H](Nc2nc(Nc3ccc(C(=O)O)cc3)ncc2[N+](=O)[O-])CC1` [Example 1(018), 2-(4-carboxy-phenylamino)-4-(trans-4-dimethylamino-cyclohexylamino)-5-nitro-pyrimidine]: the IC50 was less than 100 nM. The figure for `CC(=O)NCCNc1nc(Nc2ccc3cn[nH]c3c2)ncc1C(F)(F)F` [Example 2(044), N-{2-[2-(1H-Indazol-6-ylamino)-5-trifluoromethyl-pyrimidin-4-ylamino]-ethyl}-acetamide] is less than 100 nM. Consider `O=C1CCCN1CCCNc1nc(Nc2ccc3cn[nH]c3c2)ncc1Br` [Example 2(106), 1-{3-[5-Bromo-2-(1H-indazol-6-ylamino)-pyrimidin-4-ylamino]-propyl}-pyrrolidin-2-one], for which the IC50 is less than 100 nM.

Consider `N#Cc1ccc(Nc2ncc([N+](=O)[O-])c(N3CCc4[nH]cnc4C3)n2)cc1` [Example 1(032), 2-(4-cyano-phenylamino)-4-(1,4,6,7-tetrahydro-imidazo[4,5-c]pyridin-5-yl)-5-nitro-pyrimidine], for which the IC50 was less than 100 nM. As for `O=C1CCCN1CCCNc1nc(Nc2ccc(-c3nn[nH]n3)cc2)ncc1C(F)(F)F` [Example 2(076), 1-(3-{2-[4-(2H-tetrazol-5-yl)-phenylamino]-5-trifluoromethyl-pyrimidin-4-ylamino}-propyl)-pyrrolidin-2-one], the figure is less than 100 nM; as for `CC(=O)NCCCNc1nc(Nc2ccc(Cl)c(Cl)c2)ncc1C(F)(F)F` [Example 7(010), N-(3-[2-(3,4-dichloro-phenylamino)-5-trifluoromethyl-pyrimidin-4-ylamino]-propyl)-acetamide], less than 100 nM. As to `NCCCNc1nc(Nc2ccc(Cl)c(Cl)c2)ncc1C(F)(F)F` [Example 1(035), 2-(3,4-dichloro-phenylamino)-4-(3-amino-propylamino)-5-trifluoromethyl-pyrimidine], the IC50 was less than 100 nM. The figure for `NS(=O)(=O)c1ccc(Nc2ncc([N+](=O)[O-])c(NCCCN3CCCC3=O)n2)cc1` [Example 1(008), 2-(4-aminosulphonyl-phenylamino)-4-(3-(2-oxo-pyrrolidin-1-yl)-propyl-1-amino)-5-nitro-pyrimidine] is less than 100 nM. In the case of `Brc1cnc(Nc2ccc3cn[nH]c3c2)nc1N1CCc2[nH]cnc2C1` [Example 2(142), [5-Bromo-4-(1,4,6,7-tetrahydro-imidazo[4,5-c]pyridin-5-yl)-pyrimidin-2-yl]-(1H-indazol-6-yl)-amine], the IC50 was less than 100 nM. The figure for `O=C(O)c1ccc(Nc2ncc(C(F)(F)F)c(NCCCN3CCCC3=O)n2)cc1` [Example 1(021), 2-(4-carboxy-phenylamino)-4-(3-(2-oxo-pyrrolidin-1-yl)-propyl-1-amino)-5-trifluoromethyl-pyrimidine] is less than 100 nM.

With `CC(=O)NCCNc1nc(Nc2ccc3[nH]cnc3c2)ncc1C(F)(F)F` [Example 2(043), N-{2-[2-(1H-Benzimidazol-5-ylamino)-5-trifluoromethyl-pyrimidin-4-ylamino]-ethyl}-acetamide], the IC50 is less than 100 nM. With `Cc1cc(Nc2ncc([N+](=O)[O-])c(NCC3CCC(CN)CC3)n2)ccc1Cl` (centres unmarked) [Example 1(115), 2-(4-chloro-3-methyl-phenylamino)-4-(4-aminomethyl-cyclohexylmethylamino)-5-nitro-pyrimidine], the IC50 is less than 100 nM.

As for `CC(=O)NCCNc1nc(Nc2ccc(Cl)cc2)ncc1C(F)(F)F` [Example 2(016), 2-(4-chloro-phenylamino)-4-(2-acetylamino-ethylamino)-5-trifluoromethyl-pyrimidine], the IC50 is less than 100 nM.

`NC1CCCC(Nc2nc(Nc3cc(Cl)cc(Cl)c3)ncc2C(F)(F)F)C1` (centres unmarked) [Example 1(020), 2-(3,5-dichloro-phenylamino)-4-(3-amino-cyclohexylamino)-5-trifluoromethyl-pyrimidine]: the IC50 was less than 100 nM.

For `O=[N+]([O-])c1cnc(NCc2ccccc2Br)nc1N1CC[S+]([O-])CC1` [Example 1(628), 2-(2-bromo-benzylamino)-4-(S-oxido-thiomorpholino)-5-nitro-pyrimidine], the IC50 is less than 100 nM.

For `CC(=O)NCCNc1nc(Nc2ccc(Br)c(Cl)c2)ncc1C(F)(F)F` [Example 2(014), 2-(4-bromo-3-chloro-phenylamino)-4-(2-acetylamino-ethylamino)-5-trifluoromethyl-pyrimidine], the IC50 was less than 100 nM. For the molecule `NCCCCCNc1nc(Nc2ccc(Cl)cc2)ncc1C(F)(F)F` [Example 1(079), 2-(4-chloro-phenylamino)-4-(5-amino-pentyl-1-amino)-5-trifluoromethyl-pyrimidine], the IC50 was less than 100 nM. `Clc1cnc(Nc2ccc3cn[nH]c3c2)nc1N1CCc2[nH]cnc2C1` [Example 2(134), [5-Chloro-4-(1,4,6,7-tetrahydro-imidazo[4,5-c]pyridin-5-yl)-pyrimidin-2-yl]-(1H-indazol-6-yl)-amine]: the IC50 is less than 100 nM. As for `NCCc1ccccc1CCNc1nc(Nc2ccc(Cl)c(Cl)c2)ncc1C(F)(F)F` [Example 1(349), 2-(3,4-dichlorophenylamino)-4-(2-(2-(2-amino-1-ethyl)-phenyl)-1-ethyl-amino)-5-trifluoromethyl-pyrimidine], the figure is less than 100 nM; as for `O=C1NCCN1CCNc1nc(Nc2ccc(S(=O)(=O)N3CCOCC3)cc2)ncc1C(F)(F)F` [Example 2(051), 1-(2-{2-[4-(Morpholin-4-sulphonyl)-phenylamino]-5-trifluoromethyl-pyrimidin-4-ylamino}-ethyl)-imidazolidin-2-one], less than 100 nM; as for `CN(C)S(=O)(=O)c1ccc(Nc2ncc(Cl)c(NCCCN3CCCC3=O)n2)cc1` [Example 2(109), 4-{5-Chloro-4-[3-(2-oxo-pyrrolidin-1-yl)-propylamino]-pyrimidin-2-ylamino}-N,N-dimethyl-phenylsulphonamide], less than 100 nM. As for `CC(=O)NCCNc1nc(Nc2cccc(Cl)c2)ncc1C(F)(F)F` [Example 2(009), 2-(3-chloro-phenylamino)-4-(2-acetylamino-ethylamino)-5-trifluoromethyl-pyrimidine], the figure is less than 100 nM; as for `CC(=O)NCCNc1nc(Nc2ccc(Cl)c(C(F)(F)F)c2)ncc1C(F)(F)F` [Example 2(013), 2-(4-chloro-3-trifluoromethyl-phenylamino)-4-(2-acetylamino-ethylamino)-5-trifluoromethyl-pyrimidine], less than 100 nM; as for `CC(=O)NCCNc1nc(Nc2ccc(N)cc2)ncc1C(F)(F)F` [Example 2(004), N-{2-[2-(4-amino-phenylamino)-5-trifluoromethyl-pyrimidin-4-ylamino]-ethyl}-acetamide], less than 100 nM. Turning to `O=C(O)c1ccc(Nc2ncc([N+](=O)[O-])c(N3CCc4[nH]cnc4C3)n2)cc1` [Example 1(029), 2-(4-carboxy-phenylamino)-4-(1,4,6,7-tetrahydro-imidazo[4,5-c]pyridin-5-yl)-5-nitro-pyrimidine], the IC50 is less than 100 nM.

As to `CC(C)COC(=O)NCCCNc1nc(Nc2ccc3cnn(C)c3c2)ncc1C(F)(F)F` [Example 7(024)], the IC50 was less than 100 nM. Regarding `O=[N+]([O-])c1ccc(Nc2ncc([N+](=O)[O-])c(N3CCc4[nH]cnc4C3)n2)cc1` [Example 1(027), 2-(4-nitro-phenylamino)-4-(1,4,6,7-tetrahydro-imidazo[4,5-c]pyridin-5-yl)-5-nitro-pyrimidine], the IC50 is less than 100 nM. Consider `O=C1CCCN1CCCNc1nc(Nc2ccc(Cl)c(Cl)c2)ncc1Br` [Example 1(661), 1-{3-[5-Bromo-2-(3,4-dichloro-phenylamino)-pyrimidin-4-ylamino]-propyl}-pyrrolidin-2-one], for which the IC50 was less than 100 nM. The figure for `O=C1CCCN1CCCNc1nc(Nc2ccc(Cl)c(Cl)c2)ncc1C(F)(F)F` [Example 1(041), 2-(3,4-dichloro-phenylamino)-4-(3-(2-oxo-pyrrolidin-1-yl)-propyl-1-amino)-5-trifluoromethyl-pyrimidine] is less than 100 nM; for `CC(=O)NCCNc1nc(Nc2ccc3cn(C)nc3c2)ncc1C(F)(F)F` [Example 1(656), N-{2-[2-(2-methyl-2H-indazol-6-ylamino)-5-trifluoromethyl-pyrimidin-4-ylamino]-ethyl}-acetamide] it is less than 100 nM; for `CN(C)S(=O)(=O)c1ccc(Nc2ncc(C(F)(F)F)c(NCCCN3CCCC3=O)n2)cc1` [Example 2(041), N,N-Dimethyl-4-{4-[3-(2-oxo-pyrrolidin-1-yl)-propylamino]-5-trifluoromethyl-pyrimidin-2-ylamino}-phenylsulphonamide] it is less than 100 nM. As for `CC(=O)NCCNc1nc(Nc2ccc(-c3nn[nH]n3)cc2)ncc1C(F)(F)F` [Example 2(046), N-(2-{2-[4-(2H-Tetrazol-5-yl)-phenylamino]-5-trifluoromethyl-pyrimidin-4-ylamino}-ethyl)-acetamide], the figure is less than 100 nM.
